Laboratory results from patent US5420289A, “Substituted indole-, indene-, pyranoindole- and tetrahydrocarbazole-alkanoic acid derivatives as inhibitors of PLA2 and lipoxygenase” (American Home Products Corporation, priority 1993, dated 1995).

What was measured:
[1] = tested on: synthesis of LTB4 by rat glycogen-elicited polymorphonuclear leukocytes (PMN); experiment: inhibition of LTB4 synthesis by rat glycogen-elicited PMN (Example 72); assay type: cell-based, rat (female Wistar); details: Leukocyte, at 10 mM, negative number denotes potentiation
In short: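 Peritoneal PMNs from female Wistar rats 18-24 h after i.p. glycogen, 2.0×10^7 cells/mL in HBSS with Ca/Mg and 10 mM L-cysteine; compound preincubated 10 min at 37° C, then A23187 […] added for 10 min. Supernatant [3H]-LTB4 quantified by radio-HPLC versus drug-free stimulated cells; percent inhibition or IC50.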

[2] = tested on: cyclooxygenase (PGE2 synthesis) in rat polymorphonuclear leukocytes (PMN); experiment: inhibition of PGE2 synthesis (cyclooxygenase) by rat glycogen-elicited PMN (Example 73); assay type: cell-based, rat (female Wistar); details: Leukocyte, at 10 mM, * (negative) denotes a potentiation, read-out: % Inhibition (PGE2 synthesis)
In short: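 Glycogen-elicited peritoneal PMNs from female Wistar rats, 2.0×10^7 cells/mL in HBSS with Ca/Mg and 10 mM L-cysteine, preincubated with drug 10 min at 37° C. Stimulated 10 min with A23187 plus [3H]-AA and unlabeled AA (stocks 1 mM); supernatant [3H]-PGE2 measured by reverse-phase HPLC co-chromatographed with reference standard.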

[3] = tested on: lipoxygenase pathway (LTC4); experiment: in vivo murine zymosan peritonitis assay, LTC4 (Example 76); design: species or system mouse (male CD-1); details: 50 mg/kg p.o.; negative values denote potentiation
Experimental: (§1) The compounds of the invention are evaluated for their ability to inhibit the lipoxygenase and/or cyclooxygenase pathways of arachidonic acid metabolism in the in vivo murine zymosan peritonitis assay.
(§2) This assay is carried out as follows:
(§3) Male CD-1 mice (8 weeks old) are placed in plastic boxes in groups of six. Animals are injected with 1 mL i.p. of either 1% zymosan in pyrogen free 0.9% saline or saline (unstimulated control). Compounds are dosed orally 1 hour prior to zymosan injection. Twenty minutes after zymosan injection, the mice are asphyxiated by CO2 inhalation and tile peritoneal cavity is lavaged with 2 mL ice cold Hanks Balanced Salt Solution (HBSS) without CaCl2, MgSO4 ·7H2 O and MgCl2 ·6H2 O. Peritoneal lavage fluid from each mouse is removed by syringe and placed in 5 mL plastic test tubes put on ice and volume is noted. […]
(§4) The total metabolite level in lavage fluid/mouse is calculated and the significance is determined by a one-way analysis of variance with LSD comparisons to control (p<0.05). Drug effects are expressed as a percent change from control values.

[4] = tested on: cyclooxygenase pathway (6-keto-PGF1a); experiment: in vivo murine zymosan peritonitis assay, 6-keto-PGF1a (Example 76); design: species or system mouse (male CD-1); details: 50 mg/kg p.o.; negative values denote potentiation
Experimental: as §1, §2, §3, §4

carrageenan paw edema = experiment: rat carrageenan paw edema assay (Example 78); assay type: in vivo, rat (male Sprague-Dawley); details: 50 mg/kg peroral; 3 hours after carrageenan
Experimental: The compounds of the invention are further tested in the rat carrageenan paw edema assay to determine their ability to inhibit the acute inflammatory response.
This assay is carried out as follows: 140-180 g Male Sprague-Dawley rats, in groups of 6 animals are injected subcutaneously in the right paw with 0.1 mL of 1% carrageenan at zero time. Mercury plethysmographic readings (mL) of the paw are made at zero time and 3 hours later. Test compounds are suspended or dissolved in 0.5% methylcellulose and given perorally 1 hour prior to carrageenan administration.
The increase in paw volume (edema in mL) produced by the carrageenan is measured. Paw edema is calculated (3 hour volume minus zero time volume), and percent inhibition of edema is determined. Unpaired Student's t-test is used to determine statistical significance.

Structure (SMILES)	inhibition at 10000 µM [1] [%]	inhibition at 10000 µM [2] [%]	% Inhibition LTC4 [3] [%]	% Inhibition 6-keto-PGF [4] [%]	% Inhibition 50 mg/kg (peroral) (carrageenan paw edema)
CC1(CC(=O)O)OCCc2c1[nH]c1ccc(OCc3ccc4ccccc4n3)cc21 (stereo not shown) [Example 10, 1-Methyl-1,3,4,9-tetrahydro-6-(2-quinolinylmethoxy)pyrano[3.4-b]indole-1-acetic acid]	91	-41	11	-5	48%
CCC1(CC(=O)O)CCCc2c1[nH]c1ccc(OCc3ccc4ccccc4n3)cc21 (stereo not shown) [Example 11, 1-Ethyl-2,3,4,9-tetrahydro-6-(2-quinolinylmethoxy)-1H-carbazole-1-acetic acid]	95	80	-49	47	+1%
